The values that follow are results of earlier work, collected in publication PMC6443429 (Molecular pharmaceutics, 2019).

Data set [1] concerns MC1R, B16/F1 melanoma cells.
In data set [2] the test system is MC1R, B16/F10 melanoma cells.

For the substance “1,4,7,10-tetraazacyclononane-1,4,7,10-tetraacetic acid-Gly-Gly-Nle-c[Asp-His-DPhe-Arg-Trp-Lys]-CONH2 (sidechain bridge or staple) [DOTA-GGNle-CycMSHhex]”, the MC1R binding affinity result in data set [1] and in data set [2] was “nanomolar” each time.
